# Earlier results as cited in EP0358033B1, “Radical polymerizable compositions and their use” (Henkel Kommanditgesellschaft auf Aktien, priority 1988, dated 1990).
# Conditions: free acid
row,Structure (SMILES),pKS-Wert
1,O=C(O)C(Cl)Cl [Dichloressigsäure],"~1,3"
2,CC(=O)O [Essigsäure],"~4,76"
3,O=C(O)C(Cl)(Cl)Cl [Trichloressigsäure],"~0,6"
